# Source: patent US20130012434A1, “NOVEL SPIRO IMIDAZOLONES AS GLUCAGON RECEPTOR ANTAGONISTS, COMPOSITIONS, AND METHODS FOR THEIR USE” (priority 2010, published 2013)
# Biological target: T1, recombinant human glucagon receptor (Homo sapiens, UniProt P47871)
# T1 construct: expressed in transfected cells; host or cells: CHO cells
# Assay: Inhibition of glucagon-stimulated intracellular cAMP assay
# Assay type: cell-based
# Conditions: CHO cells expressing recombinant human glucagon receptor, stimulated with 300 pM glucagon, LANCE cAMP kit
# Description: Inhibition of Glucagon-Stimulated Intracellular cAMP Assay
# Chinese hamster ovary (CHO) cells expressing the recombinant human glucagon receptor were harvested with the aid of non-enzymatic cell dissociation solution (GIBCO 13151-014). The cells were then pelleted and suspended in the stimulation buffer (1×HBSS, 5 mM Hepes, 0.1% BSA, pH7.4 in presence of complete protease inhibitor and phosphodiesterase inhibitor). The adenylate cyclase assay was conducted following the LANCE cAMP Kit (Perkin Elmer, AD0262) instructions. Briefly, cells were preincubated with anti-cAMP antibody in the stimulation buffer with a final concentration of 3% DMSO for 30 minutes and then stimulated with 300 pM glucagon for 45 minutes. The reaction was stopped by incubating with the detection buffer containing Europium chelate of the Eu-SA/Biotin-cAMP tracer for 20 hours. The fluorescence intensity emitted from the assay was measured at 665 nm using PheraStar instruments. […] Standard cAMP concentrations were conducted concurrently for conversion of fluorescence signal to cAMP level. Data was analyzed using GraphPad Prism. IC50 values were calculated using non-linear regression analysis assuming single site competition. […] Some of the compounds of the invention shown in the examples measured less than about 5 μM in this assay; other examples measured less than about 500 nM; others less than about 100 nM. […]
# T1 sequence (P47871 26-477): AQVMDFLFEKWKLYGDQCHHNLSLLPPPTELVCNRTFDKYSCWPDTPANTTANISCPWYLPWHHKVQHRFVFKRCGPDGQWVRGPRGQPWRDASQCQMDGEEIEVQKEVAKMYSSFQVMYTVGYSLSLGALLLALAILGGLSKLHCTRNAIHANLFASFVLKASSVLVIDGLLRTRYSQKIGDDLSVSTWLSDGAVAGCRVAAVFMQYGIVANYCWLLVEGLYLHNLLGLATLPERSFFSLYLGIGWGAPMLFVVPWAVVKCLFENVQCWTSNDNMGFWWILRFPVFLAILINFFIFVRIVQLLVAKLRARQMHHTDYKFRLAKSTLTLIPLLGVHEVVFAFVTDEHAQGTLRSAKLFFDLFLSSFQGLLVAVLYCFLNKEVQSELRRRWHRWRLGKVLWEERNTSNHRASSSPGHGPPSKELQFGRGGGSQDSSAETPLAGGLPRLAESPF
row,IC50 [nM],SMILES
1,22,CC(C)(C)CCOc1cccc(C2=NC3(CCC(C(C)(C)C)CC3)N([C@H](CCC(C)(C)C)c3ccc(C(=O)NCc4nn[nH]n4)cc3)C2=O)c1 (some centres unmarked) [Example 5.69]
2,61,CC(C)(C)CC[C@H](c1ccc(C(=O)NCCC(=O)O)cc1)N1C(=O)C(c2cccc(F)c2)=NC12CCC([Si](C)(C)C)CC2 (some centres unmarked) [Example 5.26]
